In ChEMBL document CHEMBL3792379, “Synthesis and biological evaluation of aryloxyacetamide derivatives as neuroprotective agents” (2016) one finds Activity and viability data, which are given here for 34 molecules.

Calls of active or inactive are those of the source. No cut-off for these calls is given here.

Test [1] concerns PC-12. The test is described as follows: (§1) Neuroprotective activity against glutamate-induced cell death in rat PC12 cells assessed as cell viability at 1 uM after 24 hrs by MTT assay. It counts as functional. On the technique in general: Formazan colour is commonly taken as a measure of viable cells.
The test system of test [2] is PC-12. Kind of test: (§2) Neuroprotective activity against glutamate-induced cell death in rat PC12 cells assessed as cell viability at 10 uM after 24 hrs by MTT assay. Type of test: functional.
The test system of test [3] is PC-12. Kind of test: (§3) Neuroprotective activity against glutamate-induced cell death in rat PC12 cells assessed as cell viability at 0.1 uM after 24 hrs by MTT assay. Type of test: functional.
Test [4] can be described thus: as §1. The settings on record: PC-12, 24 h, read-out: Activity. It counts as functional.
The nature of test [5]: as §2. Type of test: functional. The conditions noted are these: PC-12, 24 h, read-out: Activity.
The nature of test [6]: as §3. Type of test: functional. The settings on record: PC-12, 24 h, read-out: Activity.
Test [7] deals with PC-12. Kind of test: Neuroprotective activity against glutamate-induced apoptosis in rat PC12 cells assessed as decrease in procaspase-3 level after 24 hrs by western blot analysis. It counts as functional, cell-based. (In western blotting, separated proteins are transferred to a membrane and probed.)
Test [8] has as its system PC-12. Kind of test: Neuroprotective activity against glutamate-induced apoptosis in rat PC12 cells after 24 hrs by hoechst 33342 and propidium iodide double staining based fluorescence analysis. Type of test: functional, cell-based.
The test system of test [9] is PC-12. The test is described as follows: Neuroprotective activity against glutamate-induced cell death in rat PC12 cells assessed as cell viability after 24 hrs by MTT assay. Type of test: functional, cell-based.
For test [10], the system named is PC-12. The test is described as follows: Neuroprotective activity against glutamate-induced apoptosis in rat PC12 cells at 10 uM after 24 hrs by hoechst 33342 and propidium iodide double staining based fluorescence analysis (reference value: 43.97 +/- 2.69%). Type of test: functional.
Test [11] relates to PC-12. Kind of test: Neuroprotective activity against glutamate-induced apoptosis in rat PC12 cells at 1 uM after 24 hrs by hoechst 33342 and propidium iodide double staining based fluorescence analysis (reference value: 43.97 +/- 2.69%). It counts as functional.
The subject of test [12] is PC-12. The test is described as follows: Neuroprotective activity against glutamate-induced apoptosis in rat PC12 cells assessed as decrease in caspase-3 level after 24 hrs by western blot analysis. It counts as functional, cell-based.
For test [13], the system named is PC-12. Kind of test: Neuroprotective activity against glutamate-induced apoptosis in rat PC12 cells at 0.1 uM after 24 hrs by hoechst 33342 and propidium iodide double staining based fluorescence analysis (reference value: 43.97 +/- 2.69%). It counts as functional.
Test [14] deals with PC-12. The test is described as follows: Neuroprotective activity against glutamate-induced apoptosis in rat PC12 cells assessed as procaspase-3 level at 0.1 to 10 uM after 24 hrs by western blot analysis. Type of test: functional, cell-based.
A short description of test [15]: Neuroprotective activity against glutamate-induced cell death in rat PC12 cells assessed as cell viability at 90 uM after 24 hrs by MTT assay. The settings on record: PC-12, 24 h, read-out: Activity. Type of test: functional.

On to `O=C(COc1ccc(Br)cc1)N1CCN(Cc2ccc(Br)cc2)CC1`, for which the outcome in test [1], in test [2] and in test [3] was inactive.

Turning to `COc1ccccc1OCC(=O)N1CCN(Cc2ccc(Br)cc2)CC1`, the viability at 1 µM in test [4] was 41%. Moreover, in test [5], the viability at 10 µM amounted to 20.8%. Further, in test [6], the viability at 0.1 µM turned out to be 38%.

With `COc1ccccc1OCC(=O)N1CCN(C(c2ccc(F)cc2)c2ccc(F)cc2)CC1`, the viability at 1 µM in [4] came to 45.9%. Moreover, the viability at 10 µM in test [5] turned out to be 79.7%. In addition, the Activity entry in test [7] is “Dose-dependent effect”; in test [8], “Dose-dependent effect”; in test [9], “Dose-dependent effect”; in test [10], 19.18%; in test [11] it was 31.04%; in test [12] it was “Dose-dependent effect”. Further, the Activity in [13] was found to be 42.28%. Also, the viability at 0.1 µM in test [6] is 32%.

In the case of `CCOc1ccccc1CN1CCN(C(=O)COc2ccccc2C)CC1`, in [4], the viability at 1 µM was found to be 11.9%. The viability at 10 µM in test [5] is 8.52%. The viability at 0.1 µM in [6] turned out to be 53.3%.

For `COc1ccc(C(c2ccc(OC)cc2)N2CCN(C(=O)COc3ccc4ccccc4c3)CC2)cc1`, in test [4], the viability at 1 µM worked out at 5.42%. The viability at 10 µM in test [5] is 25.6%. Besides, in test [6], the viability at 0.1 µM came to 2.55%.

Consider `O=C(COc1ccc2ccccc2c1)N1CCN(C(c2ccc(Br)cc2)c2ccc(Br)cc2)CC1`, for which, in test [4], the viability at 1 µM amounted to 7.87%. The viability at 10 µM in test [5] was 30.2%. In test [6], the viability at 0.1 µM stood at 4.06%.

For the molecule `Cc1ccc(C(c2ccc(C)cc2)N2CCN(C(=O)COc3ccc(Cl)cc3)CC2)cc1`, in test [4], the viability at 1 µM is 9.14%. Also, the viability at 10 µM in [5] came to 9.2%. Also, the viability at 0.1 µM in test [6] worked out at 5.81%.

In the case of `COc1ccc(OCC(=O)N2CCN(C(c3ccc(Br)cc3)c3ccc(Br)cc3)CC2)cc1`, the viability at 1 µM in [4] came to 7.06%. Also, the viability at 10 µM in [5] is 50.3%. Besides, the viability at 0.1 µM in test [6] amounted to 3.52%.

For `COc1ccc(OCC(=O)N2CCN(C(c3ccc(OC)cc3)c3ccc(OC)cc3)CC2)cc1`, the viability at 1 µM in test [4] is 80.7%. In test [5], the viability at 10 µM was 56.7%. For the same molecule, the viability at 0.1 µM in test [6] worked out at 59.4%.

In the case of `COc1ccc(OCC(=O)N2CCN(C(c3ccc(C)cc3)c3ccc(C)cc3)CC2)cc1`, in test [4], the viability at 1 µM is 42.3%. Also, the viability at 10 µM in test [5] was found to be 47.5%. Also, the viability at 0.1 µM in [6] came to 21.7%.

Take `Cc1ccccc1OCC(=O)N1CCN(C(c2ccc(F)cc2)c2ccc(F)cc2)CC1`: the viability at 1 µM in test [4] was found to be 8.7%. In addition, in [5], the viability at 10 µM was determined as 57%. Also, in test [6], the viability at 0.1 µM was determined as 7.92%.

Turning to `COC(=O)c1ccccc1CN1CCN(C(=O)COc2ccc(Cl)cc2)CC1`, the viability at 1 µM in [4] amounted to 5.15%. Besides, in test [5], the viability at 10 µM is 6.36%. Further, the viability at 0.1 µM in [6] was 39.9%.

Consider `CCOc1ccc(CN2CCN(C(=O)COc3ccccc3C)CC2)cc1`, for which the viability at 1 µM in [4] came out at 30.6%. For the same molecule, in test [5], the viability at 10 µM is 28.9%. For the same molecule, the viability at 0.1 µM in test [6] turned out to be 35.3%.

As to `COc1ccc(OCC(=O)N2CCN(C(c3ccc(F)cc3)c3ccc(F)cc3)CC2)cc1`, in test [4], the viability at 1 µM amounted to 5.26%. Besides, in [5], the viability at 10 µM is 80.5%. Besides, the viability at 0.1 µM in test [6] is 3.1%.

For the molecule `Cc1ccccc1OCC(=O)N1CCN(C(c2ccc(Br)cc2)c2ccc(Br)cc2)CC1`, the outcome in [1], in [2] and in [3] was inactive.

With `Cc1ccc(C(c2ccc(C)cc2)N2CCN(C(=O)COc3ccc4ccccc4c3)CC2)cc1`, the viability at 1 µM in [4] came out at 5.63%. For the same molecule, the viability at 10 µM in test [5] came out at 10.3%. The viability at 0.1 µM in [6] came out at 4.75%.

Regarding `COC(=O)c1ccccc1CN1CCN(C(=O)COc2ccccc2C)CC1`, the viability at 1 µM in test [4] stood at 9.55%. The viability at 10 µM in test [5] was found to be 25.1%. In addition, the viability at 0.1 µM in test [6] worked out at 6.39%.

In the case of `Cc1ccc(C(c2ccc(C)cc2)N2CCN(C(=O)COc3ccccc3C)CC2)cc1`, the viability at 1 µM in test [4] was 4.24%. Also, the viability at 10 µM in test [5] turned out to be 11.3%. For the same molecule, the viability at 0.1 µM in test [6] turned out to be 3.24%.

Consider `O=C(COc1ccc(Cl)cc1)N1CCN(C(c2ccc(Br)cc2)c2ccc(Br)cc2)CC1`, for which the viability at 1 µM in test [4] came to 8.01%. The viability at 10 µM in test [5] was determined as 16.7%. For the same molecule, the viability at 0.1 µM in test [6] is 4.22%.

Take `COC(=O)c1ccccc1CN1CCN(C(=O)COc2ccc(OC)cc2)CC1`: the outcome in [1], in test [2] and in [3] was inactive.

Take `COC(=O)c1ccccc1CN1CCN(C(=O)COc2ccc(Br)cc2)CC1`: the outcome in [1], in test [2] and in test [3] was inactive.

`COc1ccc(C(c2ccc(OC)cc2)N2CCN(C(=O)COc3ccccc3C)CC2)cc1`: the viability at 1 µM in test [4] came to 3.75%. For the same molecule, in test [5], the viability at 10 µM amounted to 21.2%. Moreover, the viability at 0.1 µM in [6] was found to be 2.45%.

Regarding `COC(=O)c1ccccc1CN1CCN(C(=O)COc2ccccc2OC)CC1`, in test [4], the viability at 1 µM came to 32.8%. The viability at 10 µM in test [5] came to 23.1%. Moreover, the viability at 0.1 µM in test [6] amounted to 23.2%.

Consider `CCOc1ccccc1CN1CCN(C(=O)COc2ccc3ccccc3c2)CC1`, for which the viability at 1 µM in test [4] came to 45.7%. In addition, the viability at 10 µM in test [5] was found to be 59.6%. Also, the outcome in test [14] was inactive. Besides, the Activity result in test [8] was “Dose-dependent effect”; in [9], “Dose-dependent effect”; in test [10], 16.21%; in [11] it was 23.73%; in test [12] it was “Dose-dependent effect”; in test [13], 35.09%. Moreover, the viability at 0.1 µM in test [6] stood at 29.8%.

Take `COc1ccccc1OCC(=O)N1CCN(C(c2ccc(Br)cc2)c2ccc(Br)cc2)CC1`: in [4], the viability at 1 µM was found to be 12.8%. The viability at 10 µM in test [5] is 6.67%. The viability at 0.1 µM in test [6] worked out at 45.5%.

For the molecule `COc1ccccc1OCC(=O)N1CCN(C(c2ccc(C)cc2)c2ccc(C)cc2)CC1`, the result in [1], in [2] and in test [3] was inactive.

Consider `O=C(COc1ccc2ccccc2c1)N1CCN(C(c2ccc(F)cc2)c2ccc(F)cc2)CC1`, for which the outcome in test [1], in test [2] and in test [3] was inactive.

As to `COC(=O)c1ccccc1CN1CCN(C(=O)COc2ccc(C)cc2)CC1`, the result in test [1], in test [2] and in [3] was inactive.

In the case of `Cc1ccccc1OCC(=O)N1CCN(Cc2ccc(Br)cc2)CC1`, in test [4], the viability at 1 µM stood at 22.1%. Moreover, the viability at 10 µM in [5] is 20.8%. Also, the viability at 0.1 µM in [6] is 10.2%.

In the case of `O=C(COc1ccc(Br)cc1)N1CCN(C(c2ccc(F)cc2)c2ccc(F)cc2)CC1`, the viability at 1 µM in [4] worked out at 47.6%. Further, the viability at 10 µM in test [5] was determined as 77.1%. In addition, the result in test [14] was inactive. Further, the Activity entry in test [8] is “Dose-dependent effect”; in test [9], “Dose-dependent effect”; in test [10], 24.65%; in test [11], 32.18%; in test [12] it was “Dose-dependent effect”; in test [13], 41.83%. Besides, in test [6], the viability at 0.1 µM was determined as 26.8%.

Consider `COC(=O)c1ccccc1CN1CCN(C(=O)COc2ccc3ccccc3c2)CC1`, for which the viability at 1 µM in [4] amounted to 37.4%. In test [5], the viability at 10 µM worked out at 49.5%. The Activity entry in [7] was “Dose-dependent effect”; in [8] it was “Dose-dependent effect”; in test [9], “Dose-dependent effect”; in test [10], 21.81%; in test [11] it was 29.27%; in test [12] it was “Dose-dependent effect”. Moreover, in [13], the Activity is on record as 35.67%. For the same molecule, the viability at 0.1 µM in test [6] stood at 25.6%.

Turning to `COc1ccc(/C=C/C(=O)N2CCN(C(c3ccc(F)cc3)c3ccc(F)cc3)CC2)cc1`, the viability at 1 µM in test [4] is 49.7%. Besides, the viability at 10 µM in test [5] came out at 77.8%. The viability at 0.1 µM in [6] amounted to 71%.

Take `O=C(COc1ccc(Br)cc1)N1CCN(C(c2ccc(Br)cc2)c2ccc(Br)cc2)CC1`: the result in [1], in [2] and in test [3] was inactive.

`CC1=NN(c2ccccc2)C(=O)C1` [EDARAVONE]: the viability at 90 µM in test [15] is 33%.
